Holding throughout (assay): In vitro 2D assay (CellTiter-Blue)
What all share (assay type): cell-based

Experiment [1] has as its system ACHN. Particulars: Homo sapiens, 2D model. From the text: (§1) Cell lines RXF 1183L, RXF 1220L, RXF 1781L, RXF 393L and RXF 486L were established at Oncotest from the corresponding human patient-derived xenograft. The cell lines 786-O, A-498, Caki-1 and SN12C were purchased from NCI (National Cancer Institute, Bethesda, Md., USA). ACHN was purchased from ECACC (European Collection of Cell Cultures, Salisbury, UK). Authenticity of cell lines was confirmed at the DSMZ by STR (short tandem repeat) analysis, a PCR based DNA-fingerprinting methodology.
(§2) Cell lines were routinely passaged once or twice weekly and maintained in culture for up to 20 passages. All cells were grown at 37° C. in a humidified atmosphere with 5% CO2 in RPMI 1640 medium (25 mM HEPES, with L-glutamine, # FG1385, Biochrom, Berlin, Germany) supplemented with 10% (v/v) fetal calf serum (Sigma, Taufkirchen, Germany) and 0.1 mg/mL gentamicin (Life Technologies, Karlsruhe, Germany).
(§3) Bezafibrate was dissolved at a concentration of 100 mM in 100% Methanol and next 1:5 diluted with cell culture media (20 mM, 20% Methanol). Starting with this solution, serial dilutions (1:1.6) were prepared with cell culture medium. Next, 150 μL of the serial dilutions were transferred to the assay plates upon removing the cell culture media of each well (complete change of medium on assay plates). Thus the final test concentrations were 10,240, 6,400, 4,000, 2,500, 1,563, 977, 610, and 381 μM. The maximum methanol concentrations were 6% and 10%. No precipitation was observed.
(§4) Cells were harvested from exponential phase cultures, counted and plated in 96-well flat-bottom microtiter plates at a cell density of 4,000-12,000 cells/well depending on the cell line's growth rate. After a 24 hour recovery period to allow the cells to resume exponential growth, test compounds were added. Compounds were applied at 8 to 10 concentrations in duplicate and treatment continued for 96 hour. After 96 hour treatment of cells, 20 μL/well CellTiter-Blue® reagent was added. Following an incubation period of up to four hours, fluorescence (FU) was measured by using the Enspire Multimode Plate Reader (excitation λ=531 nm, emission λ=615 nm).
(§5) For calculations, the mean values of duplicate/quadruplicate (untreated control) data were used. Sigmoidal concentration-response curves were fitted to the data points (T/C values) obtained for each cell line using 4 parameter non-linear curve fit.

Experiment [2] relates to A-498. To be noted: Homo sapiens, A498, 2D model, 96 hour treatment.
From the text: as §1, §2, §3, §4, §5

Experiment [3] has as its system Caki-1. To be noted: Homo sapiens, 2D model, 96 hour treatment.
From the text: as §1, §2, §3, §4, §5

Experiment [4] deals with RXF 1781L. To be noted: Homo sapiens, 2D model, 96 hour treatment.
From the text: as §1, §2, §3, §4, §5

The subject of experiment [5] is SN12C. To be noted: Homo sapiens, 2D model, 96 hour treatment.
From the text: as §1, §2, §3, §4, §5

Setting [6] is: second run 381 to 10,240 μM, read-out: Absolute IC50.

Read-outs that look alike come from different tables or passages of the source.

This passage reports IC50 results from US10857113B2, “Bezafibrate for the treatment of cancer” (Cipla Limited, priority 2016, dated 2020).

As to `CC(C)(Oc1ccc(CCNC(=O)c2ccc(Cl)cc2)cc1)C(=O)O` [Bezafibrate], the IC50 worked out at 1130 µM in experiment [1] (96 hour treatment, read-out: Relative IC50); 1050 µM in experiment [1] (96 hour treatment, second run 381 to 10,240 μM, read-out: Absolute IC50); 1070 µM in experiment [1] (first run 93 to 4,000 μM, read-out: IC50); 2120 µM in experiment [2] (setting [6]); 2280 µM in experiment [2] (read-out: Relative IC50); 1400 µM in experiment [3] (read-out: Relative IC50). In addition, the IC50 in experiment [3] (setting [6]) stood at 1230 µM; in experiment [4] (read-out: Relative IC50), 1950 µM; in experiment [4] (setting [6]), 1860 µM; in experiment [5] (read-out: Relative IC50) it was 1210 µM; in experiment [5] (setting [6]), 966 µM.
